Data from US9682151B2, “Peptides whose uptake in cells is controllable” (The Regents of the University of California, priority 2009, dated 2017).
Read-outs that look alike come from different tables or passages of the source.

Experiments:
[1] = mouse, in vivo
Procedure: Peptides conjugated to 5 kD PEG and 12 kD PEG were injected into nude mice bearing HT-1080 xenografts at a dose of 6 nmoles per animal (FIG. 24). […] As controls, a scrambled version of the PLGLAG (SEQ ID NO: 1) cleavable sequence denoted as LALGPG (SEQ ID NO: 48) and a d-amino acid version of the PLGLAG (SEQ ID NO: 1) sequence denoted as plglag were also injected. […] Because of what was what was available at the time, the polyoma transgenic mice were tested in wildtype and iNOS−/− backgrounds.
As the last molecule in the large molecular weight carrier series, 1725 was a fifth generation PAMAM dendrimer conjugated to two MMP cleavable selective transport molecules. The remaining 126 attachment sites were capped with succinyl groups. […] This molecule was injected into both HT-1080 tumor bearing nude transgenic PyMT mice at varying concentrations.

[2] = system: HT1080 tumor; assay: Doxorubicin conjugated dendrimers in HT1080 tumor bearing mice; format: in vivo; conditions: single dose
Procedure: In multiple experiments, HT1080 bearing nude mice were injected with a single specific dose of doxorubicin dendrimer. […] Mouse weights and tumor volumes were measured regularly. For the urea and the Peg hydrazone dendrimers, mice were imaged spectrally 7 days after injection. Using the Maestro (CRI) spectral deconvolution system and software, doxorubicin fluorescence (red) was separated out from autofluorescence (green). Tumors were removed and imaged by spectral deconvolution and brightfield. For aromatic and thioether dendrimers there were 4 mice for each treatment group but only 2 mice for the urea and Peg hydrazone dendrimers because of limited dendrimer synthesis yields.

[3] = Stability of pDox by analytical HPLC and mass spectra; format: physicochemical
Procedure: pDox dendrimers were synthesized with the intent to coat the dendrimers with one pDox and three Cy5s thus making the dendrimers brightly fluorescent in the far-red. The pDox dendrimer samples that were incubated overnight in pH 7.4 and pH 5 buffer as described previously were injected on HPLC/mass spec. HPLC was run using 30-60% Acetonitrile in water with 0.5% TFA gradient on a reverse phased column. Doxorubicin (470-490) and Cy5 (645-655) absorbance peaks were monitored to reveal a new doxorubicin peak in the pH 5 sample. This peak was proven to be free pDox based upon the mass spec. For quantitation, dendrimers were run on another HPLC using a different C18 reverse phase column with a 10-90% ACN gradient column with 0.14% TFA which has a fluorescence detector. […] To quantify the amount of pDox that was hydrolyzed off the dendrimer, 200 pmols of sample was injected and compared to a standard curve of 12, 36, and 60 pmols of pDox alone.
pDox was synthesized and reacted with the dendrimer via hydrazone linker as done with doxorubicin dendrimers discussed earlier. […] The labeling was so low that the absorbance was undetectable by UV Spectroscopy. It was only by fluorescence spectra measured on a plate reader that it was clear pDox was conjugated to the dendrimers but this was not able to be quantified. […]

[4] = system: HT1080 bearing mice; assay: Maximum tolerated dose of pDox
[5] = system: HT1080 human fibrosarcoma; conditions: for toxicity: 44 μmol/kg
Procedure: A selective transport molecule-Podophyllotoxin (selective transport molecule-podo) conjugate by reacting podo-ss-pyridine with Suc-e8-xPLGLAG-r9-c, purified by HPLC and confirmed by mass spectrometry. The peptide was stored as a TFA salt and the yield was determined by mass. For animal experiments, athymic nude mice were injected with 1×0^6HT1080 human fibrosarcoma cells in the mammary fat pad. After one week when tumors were 30-50 mm^3 mice were injected IP once every other day for a total of three times with 10 μmol/kg of either podophyllotoxin, selective transport molecule alone, or selective transport molecule-podo.
(§1) Therefore we synthesized Suc-e8-xPLGLAG-r9-c(ss-podophyllotoxin) to test in cell culture. […] In order to decide upon a starting dose, we tested podophyllotoxin by itself to determine the effective dose for shrinking tumors.
Three mice in each treatment group were injected with 3 doses, one dose every other day.

[6] = system: HT1080 human fibrosarcoma; conditions: 48-100 μmol/kg after multiple doses; cited from earlier work
[7] = system: 4T1.2 tumor; assay: Plasma pre-reaction of maleimide peptide, blood levels and tumor fluorescence; format: in vivo, mice; conditions: 48 hours
Procedure: (§2) Nude mice were injected with 2×^06HT1080 human fibrosarcoma cells in the left #2 mammary fat pad. Experiments were performed 5-7 days post injection. Polyoma Middle T mice (PyMT) were provided by Lesley Ellies and they were injected with peptide IV between 9-12 wks of age when medium to large sized tumors were present in each mammary fat pad. One million mouse mammary adenocarcinoma 4T1.2 cells (from Robyn Anderson, University of Melbourne) were injected into the left mammary fat pad of nude mice (FIGS. 4 and 7) and Balb/c mice (FIGS. 8 and 9) and 5-20 days later were injected with peptide and imaged.
(§3) When tumors were of sufficient size 5-20 days after injection of tumor cells the peptide was injected IV and imaged on the Maestro small animal imager (CRI). Animals were sacrificed by overdose with Isoflurane and dissected. To examine lung metastases, the lungs were inflated with OCT cryoprotectant and imaged on the small animal imager. Blood measurements were taken by bleeding the tail vein at a specified time point and collected in a capillary tube. The tubes were then imaged for presence of the Cy5 fluorescent peptide using the small animal imager. For processing of tissues for gels, 30 mg of tissue was homogenized in a 1% SDS Tris buffer then heated at 80° C. for 10 min and centrifuged. The supernatant was then diluted 1:10 and run on a tricine gel and imaged by fluorescence. […]

[8] = system: HT-1080 tumor bearing nude / transgenic PyMT mice; conditions: mouse, in vivo
Procedure: Animals expressing the polyoma middle T transgene (PyMT) driven by the MMTV promoter were obtained from Lesley Ellies. Nude animals bearing HT-1080 xenografts were either generated in house or were obtained from Explora Biosciences. Either way, tumors were used once they reached a diameter of […]. Animals were anesthetized with ketamine/midazolam (80 mg/kg, 40 mg/kg) and injected with the indicated construct through the tail vein Animals were typically observed throughout the first hour as they woke up from anesthesia. They were re-anesthetized and imaged at six hours, 12 hours, 24 hours and 48 hours as needed. After the last imaging session, animals were sacrificed by overdose of halothane. The imaging system used evolved over time. For most of the PEGylated conjugates, a simple light box was used, though the image shown is one of the first taken with the Maestro spectral deconvolution imager. The albumin, dextran and PAMAM dendrimer conjugates were tested using a 620/20 excitation filter and collecting images at 680 nm. The streptavidin conjugates were tested using a 640/48 excitation filter, with images collected at 700 nm.
Standardized Uptake Values were initially measured without tissue specific calibrations and were later re-adjusted to take tissue specificity and a light source change into account. […]

[9] = system: HT1080 human fibrosarcoma; assay: Optical imaging of albumin reactive peptides in HT1080 tumor bearing mice; format: in vivo; conditions: 3 nmols IV, 24 hours
Procedure: as §2, §3

[10] = system: cells; assay: Toxicity of podophyllotoxin conjugate in cell culture; format: cell-based
Description: as §1

[11] = molecular target: T1, recombinant MMP-9 (Homo sapiens, UniProt P14780); assay: Enzyme cleavage assay of albumin reacted maleimide peptide; format: biochemical; conditions: 50 nM MMP-9
T1 construct: purchased EMD Biosciences
T1 sequence (P14780 94-707, species assumed): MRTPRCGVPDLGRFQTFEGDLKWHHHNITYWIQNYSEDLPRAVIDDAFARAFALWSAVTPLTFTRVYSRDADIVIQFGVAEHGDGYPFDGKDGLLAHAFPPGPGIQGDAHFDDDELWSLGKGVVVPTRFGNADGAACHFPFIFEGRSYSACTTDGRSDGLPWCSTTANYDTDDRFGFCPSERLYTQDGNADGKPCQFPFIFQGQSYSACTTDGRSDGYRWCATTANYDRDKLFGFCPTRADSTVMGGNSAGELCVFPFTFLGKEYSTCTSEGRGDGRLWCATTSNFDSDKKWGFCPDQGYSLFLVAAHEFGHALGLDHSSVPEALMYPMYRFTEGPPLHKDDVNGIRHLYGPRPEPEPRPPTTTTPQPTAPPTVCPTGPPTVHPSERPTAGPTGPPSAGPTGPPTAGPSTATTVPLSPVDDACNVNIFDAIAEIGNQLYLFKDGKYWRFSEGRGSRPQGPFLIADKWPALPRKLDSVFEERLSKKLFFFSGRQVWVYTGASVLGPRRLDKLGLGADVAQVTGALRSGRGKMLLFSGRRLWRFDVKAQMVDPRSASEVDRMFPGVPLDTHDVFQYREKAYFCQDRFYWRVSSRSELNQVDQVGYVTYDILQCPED
Procedure: (§4) Maleimide peptides were initially reacted with mouse serum albumin (Sigma) at 40 mg/mL or fresh frozen mouse plasma for one hour. Samples were run on a tricine buffered 10-20% polyacrylamide gel and imaged for Cy5 fluorescence on a UVP gel imager. For the enzyme cleavage assay, Cy5-monomaleimide and the cleavable maleimide peptides were reacted as 2 nmol with mouse serum albumin at 40 mg/mL in 25 mM hepes buffer. The stock was then diluted 1:[…] with 50 nM of recombinant MMP-9 (EMD Biosciences) and digested for 20 minutes and 4 hours then run on a tricine gel and imaged by Cy5.
(§5) Malemide selective transport molecule was reacted mouse serum albumin and plasma in aqueous conditions to determine that peptide reacts with albumin in a test tube. […] Plasma seemed to give somewhat more complete reaction.

[12] = molecular target: T2, mouse serum albumin (Mus musculus, UniProt P07724); assay: Reaction of maleimide peptide with albumin; conditions: within an hour of mixing, PAGE
T2 construct: Albumin reactive selective transport molecules create a robust reaction with native albumin; purchased Sigma
T2 sequence (P07724 25-608): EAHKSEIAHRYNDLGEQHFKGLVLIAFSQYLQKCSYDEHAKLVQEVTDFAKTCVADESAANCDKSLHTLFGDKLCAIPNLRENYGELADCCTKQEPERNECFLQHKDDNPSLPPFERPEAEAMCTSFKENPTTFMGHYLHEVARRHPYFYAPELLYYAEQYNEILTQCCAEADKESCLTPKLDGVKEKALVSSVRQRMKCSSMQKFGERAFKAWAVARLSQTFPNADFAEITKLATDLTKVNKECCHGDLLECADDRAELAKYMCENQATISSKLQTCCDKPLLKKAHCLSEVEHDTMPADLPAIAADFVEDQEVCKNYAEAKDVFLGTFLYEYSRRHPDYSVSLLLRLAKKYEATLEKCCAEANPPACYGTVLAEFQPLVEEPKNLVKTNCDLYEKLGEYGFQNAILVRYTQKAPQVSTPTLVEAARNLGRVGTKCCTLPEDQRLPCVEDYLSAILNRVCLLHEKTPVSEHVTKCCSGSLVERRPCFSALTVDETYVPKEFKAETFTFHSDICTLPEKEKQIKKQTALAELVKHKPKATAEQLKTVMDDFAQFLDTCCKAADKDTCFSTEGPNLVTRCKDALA
Procedure: as §4, §5

[13] = 10 μmol/kg IP, 3 doses, one every other day

12kD-PEG-e9-XPLGLAG-r9-k(cy5)
Approx Plasma Halflife [1]: ~20 m | blood halflife [1]: approximately 20 minutes

COc1cccc2c1C(=O)c1c(O)c3c(c(O)c1C2=O)C[C@@](O)(C(=O)CO)C[C@@H]3O[C@H]1C[C@H](N)[C@H](O)[C@H](C)O1 [doxorubicin]
anti-tumor activity (qualitative) [2]: continually beat the dendrimers in anti-tumor activity

COc1cccc2c1C(=O)c1c(O)c3c(c(O)c1C2=O)C[C@@](O)(C(=O)CO)C[C@@H]3O[C@H]1C[C@H](N2C=CCC2)[C@H](O)[C@H](C)O1 [pDox, 2-pyrrolino doxorubicin]
stability [3]: severe stability problems | effect on tumor growth ([4]; 0.1 mg/kg): significantly slowed tumor growth | lethality ([4]; 0.3 and 1 mg/kg, two mice each): died within 24 hours | maximum tolerated dose ([4]; HT1080 bearing mice): 0.1 mg/kg

COc1cc([C@@H]2c3cc4c(cc3[C@H](O)[C@H]3COC(=O)[C@H]23)OCO4)cc(OC)c1OC [podophyllotoxin, reference compound]
effect on tumor growth [5, 13]: not efficacious | effect on tumor growth ([5]; 10 μmol/kg IP, 3 doses, one every other day, listed as Podo): no therapeutic activity or toxicity | toxicity [5]: no obvious signs of toxicity | effect on tumor growth ([5]; 3 injections at 44 μmol/kg every other day): sufficient to significantly slow tumor growth but not provide a cure | toxicity (literature) [6]: minimal toxicity

Cy5-monomaleimide
tumor fluorescence / uptake [7]: significantly less fluorescence

G5-PAMAM-[e9-XPLGLAX-r9-k(cy5)]2[PEG]126
Approx Plasma Halflife [1]: ~20 h | blood halflife [1]: over 10 hours

G5PAMAM-[e9-OPLG(MeC)AG-r9-k(cy5)][PEG]127]
liver uptake relative to PLGLAX dendrimer [8]: decrease by a factor of two

G5PAMAM-[e9-XPLGLAG-r9-k(cy5)][PEG]127 [G5PAMAM-[e9-XPLGLAG-r9-k(cy5)] [PEG]127]
tumor uptake relative to PLGLAX dendrimer [8]: decreased tumor uptake

Generation 5 PAMAM-(e9-XPLGLAX-r9-k(cy5))2(succ)126
blood halflife, first phase (biphasic) [1]: under 10 minutes | blood halflife, second phase (biphasic) [1]: 10 to 15 h

Streptavidin-[e9-XPLGLAG-r9-k(cy5)]4
Approx Plasma Halflife [1]: ~4 h

Suc-e8-xPLGLAG-r9-c(Cy5)
tumor uptake (Cy5 fluorescence) [9]: difficult to detect

Suc-e8-xPLGLAG-r9-c(ss-podophyllotoxin) [selective transport molecule-podo]
body weight ([5]; 10 μmol/kg IP, 3 doses): lost significant weight | effect on tumor growth [5, 13]: modest slowing of growth | toxicity [5]: acutely toxic | toxicity on cells [10]: submicromolar toxicity

mal-e9-oPLG(Cme)AG-r9-c(cy5)
tumor uptake (Cy5 fluorescence) [9]: much greater with the cleavable peptide compared to the uncleavable peptide | time to near complete cleavage off albumin [11]: less than 4 hours | reaction with mouse serum albumin or plasma [12]: most of the peptide reacted with MSA or plasma albumin
